What was measured:
[1] = 31P NMR study of hydrolysis of phosphate esters and phosphorylated amino acids
Procedure: For ^1H NMR studies, reaction of [L2Zn3]^6+ with either Na2O3POPh and Bu4NH2PO4 was carried out in 10% D2O in CD3CN. The NMR solutions were prepared by dissolving the ligand L and Zn(C2H3O2)2 (in a ratio of 1:1.5) in CD3CN (600 µL). The relevant anion (0.5 equivalents w.r.t ligand) was dissolved in D2O (60 µL) and these solutions were then combined. Heating of the sample was carried out @ 80 °C in a water bath for the specified amount of time. For the ^31P NMR studies solutions were prepared by dissolving the ligand L and Zn(C2H3O2)2 (in a ratio of 1:1.5) in d6-DMSO (200 µL). The anion (0.5 equivalents w.r.t ligand) was dissolved in HEPES (600 µL, 60 mmol @ pH 7.4) and these solutions were then combined. Where required heating of the sample was carried out by incubating the sample @ 37 °C and/or a further 2 h @ 80 °C in a water bath.

AMPK = biological target: T1, AMPK (Homo sapiens, UniProt Q13131); test: ADP-Glo Kinase Assay in presence of varying AMP; assay type: biochemical
T1 construct: purchased Promega
T1 sequence (Q13131 whole entry): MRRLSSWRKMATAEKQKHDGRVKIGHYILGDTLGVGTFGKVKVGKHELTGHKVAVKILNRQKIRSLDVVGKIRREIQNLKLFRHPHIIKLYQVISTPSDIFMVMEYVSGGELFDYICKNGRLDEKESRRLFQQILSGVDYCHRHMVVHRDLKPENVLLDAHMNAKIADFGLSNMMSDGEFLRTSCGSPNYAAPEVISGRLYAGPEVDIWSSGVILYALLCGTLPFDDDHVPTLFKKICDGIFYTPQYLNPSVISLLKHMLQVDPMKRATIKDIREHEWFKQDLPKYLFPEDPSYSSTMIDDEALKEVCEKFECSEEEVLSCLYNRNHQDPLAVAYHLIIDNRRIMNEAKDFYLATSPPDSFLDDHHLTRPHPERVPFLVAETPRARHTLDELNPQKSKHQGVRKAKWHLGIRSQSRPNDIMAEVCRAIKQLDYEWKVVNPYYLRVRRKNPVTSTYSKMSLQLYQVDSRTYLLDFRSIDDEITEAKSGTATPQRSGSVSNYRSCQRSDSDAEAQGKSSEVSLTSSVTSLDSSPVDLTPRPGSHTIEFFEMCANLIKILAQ
T1 sequence (O43741 whole entry partner): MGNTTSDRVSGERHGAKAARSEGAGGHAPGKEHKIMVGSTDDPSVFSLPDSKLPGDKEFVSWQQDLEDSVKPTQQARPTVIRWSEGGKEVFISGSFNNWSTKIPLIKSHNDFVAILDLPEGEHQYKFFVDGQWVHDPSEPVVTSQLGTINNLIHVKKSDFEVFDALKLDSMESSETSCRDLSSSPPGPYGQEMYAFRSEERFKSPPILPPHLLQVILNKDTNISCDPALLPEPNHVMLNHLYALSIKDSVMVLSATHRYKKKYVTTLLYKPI
T1 sequence (P54619 whole entry partner): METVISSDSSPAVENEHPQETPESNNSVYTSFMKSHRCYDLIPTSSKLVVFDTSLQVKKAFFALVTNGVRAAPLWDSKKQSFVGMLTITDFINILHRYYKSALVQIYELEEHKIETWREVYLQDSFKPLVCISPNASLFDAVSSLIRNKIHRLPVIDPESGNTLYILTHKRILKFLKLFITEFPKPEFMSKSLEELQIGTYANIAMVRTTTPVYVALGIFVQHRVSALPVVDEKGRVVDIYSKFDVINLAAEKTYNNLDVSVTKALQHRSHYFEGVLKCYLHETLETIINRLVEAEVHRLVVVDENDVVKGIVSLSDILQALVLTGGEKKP
Procedure: ATP competition kinase assays were performed by the MRC Protein Phosphorylation and Ubiquitination Unit International Centre for Kinase Profiling (University of Dundee). Inhibition of recombinant human AMPK (α1β2γ1) by 10μM [L2Cu3]^6+ or [L2Zn3]^6+ was evaluated at five different ATP concentrations (0.5, 2, 20, 200 and 500 µM ATP). Substrate competition assays were performed using the ADP-Glo Kinase Assay (Promega) and recombinant human AMPK (α1β2γ1) (Promega) with concentrations of the provided AMPK substrate (SAMStide substrate, Promega) ranging from 1 to 15 mg/ml. Following pre-incubation of substrate with kinase for 5 min 10 µM [L2Cu3]^6+, [L2Zn3]^6+ or solvent control and 50 µM ATP was added to start the kinase reaction. For determination of the effects of AMP on AMPK inhibition by [L2Zn3]^6+, the ADP-Glo Kinase Assay (Promega) was performed in presence of varying of AMP (0, 80, 160 μM).

ARPE-19 = test: Metabolic flux analysis (Cell Energy Phenotype Assay, OCR/ECAR); assay type: cell-based, human; design: Baseline EACR / Mean Baseline EACR / Stressed OCR / Mean Stressed OCR / Stressed EACR / Mean Stressed EACR / Baseline OCR / Mean Baseline OCR: unit not given here; conditions: for Baseline EACR / Baseline OCR / Stressed EACR / Stressed OCR / Mean Baseline EACR / Mean Baseline OCR / Mean Stressed EACR / Mean Stressed OCR: ARPE19 cells
Procedure: (§1) ARPE-19 and HCT116 cells were seeded in 8-well XFp plates (Agilent) 48 h prior to metabolic flux analyses using the Agilent XFp extracellular flux analyser. Cell seeding densities were 2500 cells/well for ARPE-19 cells and 7500 cells/well for HCT116 cells in order to achieve equivalent cell confluency (~70% confluency and in log phase growth) at the time of analyses. Cells were treated with 25 μM of [L2Zn3]^6+ or solvent control (0.2% DMSO) for 1 h or 20 h before metabolic flux analyses using the Cell Energy Phenotype Assay (Agilent) in accordance with the manufacturer’s instructions. For determination of maximal respiratory and glycolytic rates (metabolic reserve) following real-time quantification of basal respiratory and glycolytic rates, a ‘metabolic stress mix’ of 1 µM oligomycin and FCCP (0.5 µM for ARPE-19, 0.25 µM for HCT116) was injected into the media.

HCT116 = test: as above; assay type: cell-based, human; design: Mean Baseline EACR / Baseline EACR / Mean Stressed OCR / Stressed OCR / Mean Stressed EACR / Stressed EACR / Mean Baseline OCR / Baseline OCR: unit not given here; conditions: for Baseline EACR / Baseline OCR / Stressed EACR / Stressed OCR / Mean Baseline EACR / Mean Baseline OCR / Mean Stressed EACR / Mean Stressed OCR: HCT116 cells
Procedure: as §1

[2] = biological target: 140 purified human kinases (Rattus norvegicus, UniProt Q62868); test: Kinase inhibition screen, cell-free 33P ATP assay at 10 μM; assay type: biochemical
Sequence of 140 purified human kinases (Q62868 whole entry): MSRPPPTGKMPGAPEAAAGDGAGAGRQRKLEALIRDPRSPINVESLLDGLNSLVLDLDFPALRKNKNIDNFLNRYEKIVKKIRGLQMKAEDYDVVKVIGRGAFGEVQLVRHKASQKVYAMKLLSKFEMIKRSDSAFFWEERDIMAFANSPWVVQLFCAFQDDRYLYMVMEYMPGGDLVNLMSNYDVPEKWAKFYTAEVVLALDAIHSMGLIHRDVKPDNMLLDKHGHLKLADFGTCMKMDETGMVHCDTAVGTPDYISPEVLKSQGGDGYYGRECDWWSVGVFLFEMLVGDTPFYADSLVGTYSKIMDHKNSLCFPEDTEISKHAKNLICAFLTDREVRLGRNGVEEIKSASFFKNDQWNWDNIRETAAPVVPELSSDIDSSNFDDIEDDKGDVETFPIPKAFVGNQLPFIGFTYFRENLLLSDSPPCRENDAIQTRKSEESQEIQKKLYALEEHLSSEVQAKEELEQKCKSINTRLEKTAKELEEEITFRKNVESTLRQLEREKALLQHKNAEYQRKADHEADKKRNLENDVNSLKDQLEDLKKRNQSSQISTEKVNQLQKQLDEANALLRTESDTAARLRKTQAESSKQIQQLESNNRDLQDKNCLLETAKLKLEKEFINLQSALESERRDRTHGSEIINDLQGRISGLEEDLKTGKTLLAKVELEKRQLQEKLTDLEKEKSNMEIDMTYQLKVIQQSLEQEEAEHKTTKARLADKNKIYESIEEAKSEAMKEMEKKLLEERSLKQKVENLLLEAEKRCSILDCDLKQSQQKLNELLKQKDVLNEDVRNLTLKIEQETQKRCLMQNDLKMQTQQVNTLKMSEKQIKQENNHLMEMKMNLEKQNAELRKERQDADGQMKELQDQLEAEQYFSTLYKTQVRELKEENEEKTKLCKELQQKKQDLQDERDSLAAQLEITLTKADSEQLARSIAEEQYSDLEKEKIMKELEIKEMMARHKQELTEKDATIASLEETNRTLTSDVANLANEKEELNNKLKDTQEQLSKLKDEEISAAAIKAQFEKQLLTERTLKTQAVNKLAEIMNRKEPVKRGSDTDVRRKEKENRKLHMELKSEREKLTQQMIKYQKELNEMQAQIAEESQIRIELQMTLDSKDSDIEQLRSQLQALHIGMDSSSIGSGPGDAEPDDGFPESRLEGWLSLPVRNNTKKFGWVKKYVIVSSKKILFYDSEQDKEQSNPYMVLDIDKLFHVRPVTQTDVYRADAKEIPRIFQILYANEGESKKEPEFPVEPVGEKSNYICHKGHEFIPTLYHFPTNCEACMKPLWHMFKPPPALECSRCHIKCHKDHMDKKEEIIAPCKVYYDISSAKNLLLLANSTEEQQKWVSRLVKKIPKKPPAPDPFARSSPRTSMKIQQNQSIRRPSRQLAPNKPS
Method in brief: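 Each complex tested in duplicate at 10 μM; cell-free radiometric assay using ^33P ATP on purified enzymes. Hits mapped by HGNC symbol onto the kinome tree.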

[3] = 1h exposure, mean of 3 runs (Fig. 9c)
[4] = 20h exposure, mean of 3 runs (Fig. 9d)

CC(=O)[O-].CC(=O)[O-].CC(=O)[O-].CC(=O)[O-].CC(=O)[O-].CC(=O)[O-].[Zn+2].[Zn+2].[Zn+2].c1ccc(-c2csc(NCCN(CCNc3nc(-c4ccccn4)cs3)CCNc3nc(-c4ccccn4)cs3)n2)nc1.c1ccc(-c2csc(NCCN(CCNc3nc(-c4ccccn4)cs3)CCNc3nc(-c4ccccn4)cs3)n2)nc1 [[L2Zn3]6+]
dephosphorylation of serine-OPO3 2- (31P NMR) ([1]; 37 °C): completion after 48 h
dephosphorylation of tyrosine-OPO3 2- (31P NMR) ([1]; 37 °C): completion after 48 h
dephosphorylation of threonine-OPO3 2- (31P NMR) ([1]; 37 °C, compared with serine and tyrosine phosphate): much slower
hydrolysis of phenyl phosphate dianion (31P NMR) ([1]; after 44 h at 37 °C, 25% DMSO / HEPES): virtually no signal
hydrolysis of 4-nitrophenyl phosphate (31P NMR) ([1]; following mixing): almost immediate hydrolysis
AMPK activity remaining (AMPK; in the absence of AMP): ~ 30%
AMPK activity remaining (AMPK; in the presence of AMP (80 or 160 microM)): 20-30%
Baseline EACR (ARPE-19; 1h exposure, Run 1 (Fig. 9c)): 18.76
Baseline OCR (ARPE-19; 1h exposure, Run 1 (Fig. 9c)): 23.36
Stressed EACR (ARPE-19; 1h exposure, Run 1 (Fig. 9c)): 24.63
Stressed OCR (ARPE-19; 1h exposure, Run 1 (Fig. 9c)): 30.28
Baseline EACR (ARPE-19; 1h exposure, Run 2 (Fig. 9c)): 18.49
Baseline OCR (ARPE-19; 1h exposure, Run 2 (Fig. 9c)): 21.88
Stressed EACR (ARPE-19; 1h exposure, Run 2 (Fig. 9c)): 25.17
Stressed OCR (ARPE-19; 1h exposure, Run 2 (Fig. 9c)): 27.97
Baseline EACR (ARPE-19; 1h exposure, Run 3 (Fig. 9c)): 18.70
Baseline OCR (ARPE-19; 1h exposure, Run 3 (Fig. 9c)): 20.12
Stressed EACR (ARPE-19; 1h exposure, Run 3 (Fig. 9c)): 24.11
Stressed OCR (ARPE-19; 1h exposure, Run 3 (Fig. 9c)): 25.60
Mean Baseline EACR (ARPE-19; [3]): 18.65
Mean Baseline OCR (ARPE-19; [3]): 21.79
Mean Stressed EACR (ARPE-19; [3]): 24.64
Mean Stressed OCR (ARPE-19; [3]): 27.95
Baseline EACR (ARPE-19; 20h exposure, Run 1 (Fig. 9d)): 13.57
Baseline OCR (ARPE-19; 20h exposure, Run 1 (Fig. 9d)): 9.08
Stressed EACR (ARPE-19; 20h exposure, Run 1 (Fig. 9d)): 15.01
Stressed OCR (ARPE-19; 20h exposure, Run 1 (Fig. 9d)): 12.02
Baseline EACR (ARPE-19; 20h exposure, Run 2 (Fig. 9d)): 10.60
Baseline OCR (ARPE-19; 20h exposure, Run 2 (Fig. 9d)): 7.37
Stressed EACR (ARPE-19; 20h exposure, Run 2 (Fig. 9d)): 11.55
Stressed OCR (ARPE-19; 20h exposure, Run 2 (Fig. 9d)): 9.95
Baseline EACR (ARPE-19; 20h exposure, Run 3 (Fig. 9d)): 12.23
Baseline OCR (ARPE-19; 20h exposure, Run 3 (Fig. 9d)): 7.73
Stressed EACR (ARPE-19; 20h exposure, Run 3 (Fig. 9d)): 13.58
Stressed OCR (ARPE-19; 20h exposure, Run 3 (Fig. 9d)): 9.28
Mean Baseline EACR (ARPE-19; [4]): 12.13
Mean Baseline OCR (ARPE-19; [4]): 8.06
Mean Stressed EACR (ARPE-19; [4]): 13.38
Mean Stressed OCR (ARPE-19; [4]): 10.41
glycolysis (ECAR) (ARPE-19; ARPE-19, 25 μM, 1 h): unaffected
glycolysis (ECAR) (HCT116; HCT116, 25 μM, 1 h): modest selective decrease
mitochondrial respiration and glycolysis (HCT116; HCT116, 25 μM, 20 h): substantially impaired
Baseline EACR (HCT116; 1h exposure, Run 1 (Fig. 9c)): 36.12
Baseline OCR (HCT116; 1h exposure, Run 1 (Fig. 9c)): 98.34
Stressed EACR (HCT116; 1h exposure, Run 1 (Fig. 9c)): 50.32
Stressed OCR (HCT116; 1h exposure, Run 1 (Fig. 9c)): 147.22
Baseline EACR (HCT116; 1h exposure, Run 2 (Fig. 9c)): 27.29
Baseline OCR (HCT116; 1h exposure, Run 2 (Fig. 9c)): 76.52
Stressed EACR (HCT116; 1h exposure, Run 2 (Fig. 9c)): 37.11
Stressed OCR (HCT116; 1h exposure, Run 2 (Fig. 9c)): 109.94
Baseline EACR (HCT116; 1h exposure, Run 3 (Fig. 9c)): 34.53
Baseline OCR (HCT116; 1h exposure, Run 3 (Fig. 9c)): 90.56
Stressed EACR (HCT116; 1h exposure, Run 3 (Fig. 9c)): 47.29
Stressed OCR (HCT116; 1h exposure, Run 3 (Fig. 9c)): 132.49
Mean Baseline EACR (HCT116; [3]): 32.65
Mean Baseline OCR (HCT116; [3]): 88.47
Mean Stressed EACR (HCT116; [3]): 44.91
Mean Stressed OCR (HCT116; [3]): 129.88
Baseline EACR (HCT116; 20h exposure, Run 1 (Fig. 9d)): 24.12
Baseline OCR (HCT116; 20h exposure, Run 1 (Fig. 9d)): 21.60
Stressed EACR (HCT116; 20h exposure, Run 1 (Fig. 9d)): 29.60
Stressed OCR (HCT116; 20h exposure, Run 1 (Fig. 9d)): 20.79
Baseline EACR (HCT116; 20h exposure, Run 2 (Fig. 9d)): 26.59
Baseline OCR (HCT116; 20h exposure, Run 2 (Fig. 9d)): 20.38
Stressed EACR (HCT116; 20h exposure, Run 2 (Fig. 9d)): 33.07
Stressed OCR (HCT116; 20h exposure, Run 2 (Fig. 9d)): 21.88
Baseline EACR (HCT116; 20h exposure, Run 3 (Fig. 9d)): 25.54
Baseline OCR (HCT116; 20h exposure, Run 3 (Fig. 9d)): 19.42
Stressed EACR (HCT116; 20h exposure, Run 3 (Fig. 9d)): 31.03
Stressed OCR (HCT116; 20h exposure, Run 3 (Fig. 9d)): 19.19
Mean Baseline EACR (HCT116; [4]): 25.41
Mean Baseline OCR (HCT116; [4]): 20.47
Mean Stressed EACR (HCT116; [4]): 31.23
Mean Stressed OCR (HCT116; [4]): 20.62

[Cu+2].[Cu+2].[Cu+2].c1ccc(-c2csc(NCCN(CCNc3nc(-c4ccccn4)cs3)CCNc3nc(-c4ccccn4)cs3)n2)nc1.c1ccc(-c2csc(NCCN(CCNc3nc(-c4ccccn4)cs3)CCNc3nc(-c4ccccn4)cs3)n2)nc1 [[L2Cu3]6+]
% activity ([2]; ROCK 2, Run 1): 16.5%
% activity ([2]; ROCK 2, Run 2): 22.5%

From article PMC8222254, “Self-assembly of an anion receptor with metal-dependent kinase inhibition and potent in vitro anti-cancer properties” (Nature Communications, 2021)
